ChEMBL document CHEMBL3885881, “DrugMatrix”

Species: Rattus norvegicus
Experiment: DrugMatrix - Regimen: Daily Repeat
Assay type: toxicity, organism-based, Sprague-Dawley
Design: regimen Daily Repeat, gender Male, age 6-8 weeks
Conditions: in vivo, po, route oral GAVAGE, […]; for ABSOLUTE BASOPHIL / ABSOLUTE EOSINOPHIL / ABSOLUTE LYMPHOCYTE / ABSOLUTE MONOCYTE / ABSOLUTE SEGMENTED NEUTROPHIL / BASOPHIL / EOSINOPHIL / ERYTHROCYTE COUNT / HEMATOCRIT / HEMOGLOBIN / LEUKOCYTE COUNT / LYMPHOCYTE / MEAN CORPUSCULAR HEMOGLOBIN / MEAN CORPUSCULAR HEMOGLOBIN CONCENTRATION / MEAN CORPUSCULAR VOLUME / MONOCYTE / NEUTROPHIL / NUCLEATED RED BLOOD CELLS / PLATELET COUNT: tissue Blood; for ALANINE AMINOTRANSFERASE / ALBUMIN / ALKALINE PHOSPHATASE / ASPARTATE AMINOTRANSFERASE / BLOOD UREA NITROGEN / CARBON DIOXIDE / CHLORIDE / CHOLESTEROL / CREATINE PHOSPHOKINASE / CREATININE / GLUCOSE / LACTATE DEHYDROGENASE / LIPASE / PHOSPHORUS / POTASSIUM / SODIUM / TOTAL BILIRUBIN / TOTAL PROTEIN / URIC ACID: tissue Plasma
[1] = 100 mg/kg, 120 h, dose level Low, time 5 day
[2] = 448 mg/kg, 72 h, dose level High, time 3 day
[3] = 448 mg/kg, 120 h, dose level High, time 5 day

SMILES: CC(C)(Oc1ccc(Cl)cc1)C(=O)O [CLOFIBRIC ACID]
- ABSOLUTE BASOPHIL [1]: 0 CELLS/uL
- ABSOLUTE EOSINOPHIL [1]: 54.67 CELLS/uL
- ABSOLUTE LYMPHOCYTE [1]: 12665.33 CELLS/uL
- ABSOLUTE MONOCYTE [1]: 34.33 CELLS/uL
- ABSOLUTE SEGMENTED NEUTROPHIL [1]: 1712.33 CELLS/uL
- BASOPHIL [1]: 0%
- EOSINOPHIL [1]: 0.33%
- ERYTHROCYTE COUNT [1]: 5.75 x10E6/uL
- HEMATOCRIT [1]: 35.5%
- HEMOGLOBIN [1]: 14.03 G/DL
- LEUKOCYTE COUNT [1]: 14.47 x10E3/uL
- LYMPHOCYTE [1]: 87%
- MEAN CORPUSCULAR HEMOGLOBIN [1]: 24.43 pg
- MEAN CORPUSCULAR HEMOGLOBIN CONCENTRATION [1]: 39.53 G/DL
- MEAN CORPUSCULAR VOLUME [1]: 61.77 fL
- MONOCYTE [1]: 0.33%
- NEUTROPHIL [1]: 12.33%
- NUCLEATED RED BLOOD CELLS [1]: 0.33 /100WBC
- PLATELET COUNT [1]: 1147.33 x10E3/uL
- ALANINE AMINOTRANSFERASE [1]: 63.67 u/L
- ALBUMIN [1]: 4.37 G/DL
- ALKALINE PHOSPHATASE [1]: 342 u/L
- ASPARTATE AMINOTRANSFERASE [1]: 93.33 u/L
- BLOOD UREA NITROGEN [1]: 15 mg/dL
- CARBON DIOXIDE [1]: 28 mmol/L
- CHLORIDE [1]: 101.33 MEQ/L
- CHOLESTEROL [1]: 50.67 mg/dL
- CREATINE PHOSPHOKINASE [1]: 370.33 u/L
- CREATININE [1]: 0.2 mg/dL
- GLUCOSE [1]: 145.33 mg/dL
- LACTATE DEHYDROGENASE [1]: 275.67 u/L
- LIPASE [1]: 9.67 u/L
- PHOSPHORUS [1]: 11.03 mg/dL
- POTASSIUM [1]: 5.96 MEQ/L
- SODIUM [1]: 142.3 MEQ/L
- TOTAL BILIRUBIN [1]: 0.2 mg/dL
- TOTAL PROTEIN [1]: 5.73 G/DL
- URIC ACID [1]: 1.23 mg/dL
- ABSOLUTE BASOPHIL [2]: 0 CELLS/uL
- ABSOLUTE EOSINOPHIL [2]: 0 CELLS/uL
- ABSOLUTE LYMPHOCYTE [2]: 10222.33 CELLS/uL
- ABSOLUTE MONOCYTE [2]: 204.67 CELLS/uL
- ABSOLUTE SEGMENTED NEUTROPHIL [2]: 1606.33 CELLS/uL
- BASOPHIL [2]: 0%
- EOSINOPHIL [2]: 0%
- ERYTHROCYTE COUNT [2]: 5.53 x10E6/uL
- HEMATOCRIT [2]: 33.9%
- HEMOGLOBIN [2]: 13.1 G/DL
- LEUKOCYTE COUNT [2]: 12.03 x10E3/uL
- LYMPHOCYTE [2]: 85%
- MEAN CORPUSCULAR HEMOGLOBIN [2]: 23.73 pg
- MEAN CORPUSCULAR HEMOGLOBIN CONCENTRATION [2]: 38.63 G/DL
- MEAN CORPUSCULAR VOLUME [2]: 61.37 fL
- MONOCYTE [2]: 1.67%
- NEUTROPHIL [2]: 13.33%
- NUCLEATED RED BLOOD CELLS [2]: 0 /100WBC
- PLATELET COUNT [2]: 1067.33 x10E3/uL
- ALANINE AMINOTRANSFERASE [2]: 82.33 u/L
- ALBUMIN [2]: 4.4 G/DL
- ALKALINE PHOSPHATASE [2]: 525.33 u/L
- ASPARTATE AMINOTRANSFERASE [2]: 118.33 u/L
- BLOOD UREA NITROGEN [2]: 13.33 mg/dL
- CARBON DIOXIDE [2]: 33 mmol/L
- CHLORIDE [2]: 98.33 MEQ/L
- CHOLESTEROL [2]: 39 mg/dL
- CREATINE PHOSPHOKINASE [2]: 203.67 u/L
- CREATININE [2]: 0.14 mg/dL
- GLUCOSE [2]: 149.33 mg/dL
- LACTATE DEHYDROGENASE [2]: 172.67 u/L
- LIPASE [2]: 8 u/L
- PHOSPHORUS [2]: 11.27 mg/dL
- POTASSIUM [2]: 6.66 MEQ/L
- SODIUM [2]: 140.57 MEQ/L
- TOTAL BILIRUBIN [2]: 0.17 mg/dL
- TOTAL PROTEIN [2]: 5.33 G/DL
- URIC ACID [2]: 1.37 mg/dL
- ABSOLUTE BASOPHIL [3]: 0 CELLS/uL
- ABSOLUTE EOSINOPHIL [3]: 0 CELLS/uL
- ABSOLUTE LYMPHOCYTE [3]: 14966.67 CELLS/uL
- ABSOLUTE MONOCYTE [3]: 437.33 CELLS/uL
- ABSOLUTE SEGMENTED NEUTROPHIL [3]: 2729.33 CELLS/uL
- BASOPHIL [3]: 0%
- EOSINOPHIL [3]: 0%
- ERYTHROCYTE COUNT [3]: 5.64 x10E6/uL
- HEMATOCRIT [3]: 35.03%
- HEMOGLOBIN [3]: 13.4 G/DL
- LEUKOCYTE COUNT [3]: 18.13 x10E3/uL
- LYMPHOCYTE [3]: 82.67%
- MEAN CORPUSCULAR HEMOGLOBIN [3]: 23.77 pg
- MEAN CORPUSCULAR HEMOGLOBIN CONCENTRATION [3]: 38.27 G/DL
- MEAN CORPUSCULAR VOLUME [3]: 62.17 fL
- MONOCYTE [3]: 2.33%
- NEUTROPHIL [3]: 15%
- NUCLEATED RED BLOOD CELLS [3]: 0 /100WBC
- PLATELET COUNT [3]: 1012.67 x10E3/uL
- ALANINE AMINOTRANSFERASE [3]: 61 u/L
- ALBUMIN [3]: 4.6 G/DL
- ALKALINE PHOSPHATASE [3]: 409.33 u/L
- ASPARTATE AMINOTRANSFERASE [3]: 90.67 u/L
- BLOOD UREA NITROGEN [3]: 17.33 mg/dL
- CARBON DIOXIDE [3]: 28.33 mmol/L
- CHLORIDE [3]: 106.67 MEQ/L
- CHOLESTEROL [3]: 46.33 mg/dL
- CREATINE PHOSPHOKINASE [3]: 195.67 u/L
- CREATININE [3]: 0.19 mg/dL
- GLUCOSE [3]: 158 mg/dL
- LACTATE DEHYDROGENASE [3]: 194.33 u/L
- LIPASE [3]: 9.33 u/L
- PHOSPHORUS [3]: 9.7 mg/dL
- POTASSIUM [3]: 6.4 MEQ/L
- SODIUM [3]: 149.4 MEQ/L
- TOTAL BILIRUBIN [3]: 0.1 mg/dL
- TOTAL PROTEIN [3]: 5.63 G/DL
- URIC ACID [3]: 1.5 mg/dL
